Measured values: patent US20080176866A1, “NOVEL HETARYL-PHENYLENEDIAMINE-PYRIMIDINES AS PROTEIN KINASE INHIBITORS” (priority 2006, published 2008)
pIC50: −log10 of the molar value.

How the values were obtained:
[1] = system: human MCF7 breast tumour cells; experiment: MCF7 proliferation assay; assay type: cell-based; conditions: 96 h, 4 days incubation, crystal violet staining
Protocol: Cultivated human MCF7 breast tumour cells (ATCC HTB-22) were plated out in a density of 5000 cells/measurement point in 200 μl of growth medium (RPMI1640, 10% foetal calf serum, 2 mU/mL insulin, 0.1 nM oestradiol) in a 96-well multititre plate. After 24 hours, the cells from a plate (zero plate) were stained with crystal violet (see below), while the medium in the other plates was replaced by fresh culture medium (200 μl) to which the test substances had been added in various concentrations (0 μM, and in the range 0.01-30 μM; the final concentration of the solvent dimethyl sulphoxide was 0.5%). The cells were incubated in the presence of the test substances for 4 days. The cell proliferation was determined by staining the cells with crystal violet: the cells were fixed by adding 20 μl/measurement point of an 11% strength glutaraldehyde solution at room temperature for 15 min. After the fixed cells had been washed three times with water, the plates were dried at room temperature. The cells were stained by adding 100 μl/measurement point of a 0.1% strength crystal violet solution (pH adjusted to pH 3 by adding acetic acid). After the stained cells had been washed three times with water, the plates were dried at room temperature. The dye was dissolved by adding 100 μl/measurement point of a 10% strength acetic acid solution, and the extinction was determined by photometry at a wavelength of 595 nm. The percentage change in cell growth was calculated by normalizing the measurements to the extinctions of the zero point plate (=0%) and the extinction of the untreated (0 μM) cells (=100%). The IC50 values were determined by means of a 4-parameter fit using the company's own software.

[2] = biological target: T1, CDK1/CycB (Homo sapiens, UniProt P06493); experiment: CDK1/CycB kinase assay; assay type: biochemical; conditions: 0.5 μM ATP, histone IIIS, 33P filter assay
T1 construct: GST; purchased ProQinase GmbH, Freiburg; host or cells: baculovirus-infected insect cells (Sf9)
Protocol: Recombinant CDK1- and CycB-GST fusion proteins, purified from baculovirus-infected insect cells (Sf9), were purchased from ProQinase GmbH, Freiburg. The histone IIIS used as kinase substrate can be purchased from Sigma.
CDK1/CycB (5 ng/μL) was incubated in the presence of various concentrations of test substances (0 μM, and within the range 0.01-100 μM) in 40 μL of assay buffer [50 mM Tris/HCl pH 8.0, 10 mM MgCl2, 0.1 mM Na ortho-vanadate, 1.0 mM dithiothreitol, 0.025% PEG 20000, 0.5 μM ATP, 10 μM histone IIIIS, 0.2 μCi/measurement point ^33P-gamma ATP, 0.05% NP40, 1.25% dimethyl sulphoxide] at 22° C. for 10 min. The reaction was stopped by adding EDTA solution (250 mM, pH 8.0, 15 μl/measurement point).
15 μl of each reaction mixture were loaded onto P30 filter strips (from Wallac), and non-incorporated ^33P-ATP was removed by washing the filter strips three times in 0.5% strength phosphoric acid for 10 min each time. After the filter strips had been dried at 70° C. for 1 hour, the filter strips were covered with scintillator strips (MeltiLex™ A, from Wallac) and baked at 90° C. for 1 hour. The amount of incorporated ^33P (substrate phosphorylation) was determined by scintillation measurement in a gamma radiation counter (Wallac).
The measured data were normalized to 0% inhibition (enzyme reaction without inhibitor) and 100% inhibition (all assay components except enzyme). The IC50 values were determined by means of a 4-parameter fit using the company's own software.

[3] = biological target: T2, CDK2/CycE (Homo sapiens, UniProt P24941); experiment: CDK2/CycE kinase assay (HTRF); assay type: biochemical; conditions: 10 μM ATP
T2 construct: GST; purchased ProQinase GmbH, Freiburg; host or cells: baculovirus-infected insect cells (Sf9)
Protocol: The CDK2/CycE inhibitory activity of the substances of this invention was measured in the CDK2/CycE-HTRF assay (HTRF=Homogeneous Time Resolved Fluorescence) described in the following paragraphs.
Recombinant CDK2-GST and CycE-GST fusion proteins purified from baculovirus-infected insect cells (Sf9) were purchased from ProQinase GmbH, Freiburg. The substrate used for the kinase reaction was the biotinylated peptide biotin-Ttds-YISPLKSPYKISEG (C terminus in amide form) which can be purchased for example from JERINI Peptide Technologies (Berlin).
CDK2/CycE was incubated in the presence of various concentrations of test substances in 5 μL of assay buffer [50 mM Tris/HCl pH 8.0, 10 mM MgCl2, 1.0 mM dithiothreitol, 0.1 mM sodium orthovanadate, 10 μM adenosine triphosphate (ATP), 0.75 μM substrate, 0.01% (v/v) Nonidet-P40 (Sigma), 1% (v/v) dimethyl sulphoxide] at 22° C. for 60 min. The concentration of CDK2/CycE was adapted to the particular activity of the enzyme and adjusted so that the assay operated in the linear range. Typical concentrations were in the region of 1 ng/ml. The reaction was stopped by adding 5 μl of a solution of HTRF detection reagents (0.2 μM streptavidin-XLent and 3.4 nM phospho-(Ser) CDKs substrate antibody [product #2324B, Cell Signaling Technology, Danvers, Mass., USA] and 4 nM Prot-A-EuK [protein A labelled with Europium cryptate from C is biointernational, France, product No. 61 PRAKLB]) in aqueous EDTA solution (100 mM EDTA, 800 mM KF, 0.2% (w/v) bovine serum albumin (BSA) in 100 mM HEPES/NaOH pH 7.0).
The resulting mixture was incubated at 22° C. for 1 h in order to allow formation of a complex of the biotinylated phosphorylated substrate and the detection reagents. The amount of phosphorylated substrate was then estimated by measuring the resonance energy transfer from the Prot-A-EuK to the streptavidin-XLent. For this purpose, the fluorescence emissions at 620 nm and 665 nm after excitation at 350 nm were measured in an HTRF measuring instrument, e.g. a Rubystar (BMG Labtechnologies, Offenburg, Germany) or a Viewlux (Perkin-Elmer). The ratio of the emissions at 665 nm and at 622 nm was taken as a measure of the amount of phosphorylated substrate. The data were normalized (enzymic reaction without inhibitor=0% inhibition, all other assay components but no enzyme=100% inhibition) and IC50 values were calculated with a 4-parameter fit using an inhouse software.

T1 sequence (P06493 whole entry): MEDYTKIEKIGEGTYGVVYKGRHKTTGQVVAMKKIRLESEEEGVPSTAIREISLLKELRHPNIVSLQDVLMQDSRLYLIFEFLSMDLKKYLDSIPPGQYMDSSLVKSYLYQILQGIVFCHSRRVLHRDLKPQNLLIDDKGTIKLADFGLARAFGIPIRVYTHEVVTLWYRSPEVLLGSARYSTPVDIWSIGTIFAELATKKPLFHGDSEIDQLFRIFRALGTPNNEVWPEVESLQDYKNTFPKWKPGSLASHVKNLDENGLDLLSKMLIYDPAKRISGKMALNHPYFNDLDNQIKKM
T1 sequence (P14635 whole entry partner): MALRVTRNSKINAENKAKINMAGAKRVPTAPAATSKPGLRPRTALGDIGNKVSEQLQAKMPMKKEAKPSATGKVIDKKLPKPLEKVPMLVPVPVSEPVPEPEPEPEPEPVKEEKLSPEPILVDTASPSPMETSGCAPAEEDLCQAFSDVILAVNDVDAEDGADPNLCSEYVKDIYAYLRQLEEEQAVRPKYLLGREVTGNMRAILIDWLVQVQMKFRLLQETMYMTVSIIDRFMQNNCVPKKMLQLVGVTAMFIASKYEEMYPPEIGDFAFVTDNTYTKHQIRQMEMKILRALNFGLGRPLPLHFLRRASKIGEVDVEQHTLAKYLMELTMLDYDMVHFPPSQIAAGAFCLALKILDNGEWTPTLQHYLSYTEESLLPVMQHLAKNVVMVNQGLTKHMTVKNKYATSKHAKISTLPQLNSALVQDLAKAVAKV

| Compound | pIC50 [1] | pIC50 [2] | pIC50 [3] |
| --- | --- | --- | --- |
| C[C@@H](O)[C@@H](C)Nc1nc(Nc2ccc(Oc3cccnc3)cc2)ncc1Br [Example 33] | 6.57 | 7.11 | 8.18 |
| CSc1nc(Nc2ccc(Nc3ccccn3)cc2)ncc1Br [Example 29] | < 5.52 | < 6.00 | 6.59 |
| C[C@@H](O)[C@@H](C)Oc1nc(Nc2cccc(Nc3nccc(OCCO)n3)c2)ncc1Br [Example 27] | 7.48 | 7.80 | 8.62 |
| C[C@@H](O)[C@@H](C)Oc1nc(Nc2ccc(Nc3ncc(Cl)c(NCCO)n3)cc2)ncc1Br [Example 21] | 7.04 | 7.27 | 8.66 |
| C[C@@H](O)[C@@H](C)Oc1nc(Nc2ccc(Nc3ncccn3)cc2)ncc1Br [Example 15] | 7.05 | 7.57 | 8.54 |
| CC(=O)NCCNc1nc(Nc2cccc(Nc3ncc(Br)c(NCCNC(C)=O)n3)c2)ncc1Br [Example 30] | 5.70 |  | 5.24 |
| C[C@@H](O)[C@@H](C)Nc1nc(Nc2ccc(Oc3ncccn3)cc2)ncc1Br [Example 34] |  | 7.46 | 8.04 |
| Cc1cnc(Nc2ccc(Nc3ncc(Br)c(O[C@H](C)[C@@H](C)O)n3)cc2)nc1NCCO [Example 19] | 6.54 | 7.29 | 8.66 |
| C[C@@H](O)[C@@H](C)Oc1nc(Nc2ccc(Nc3nccc(N)n3)cc2)ncc1Br [Example 16] | 6.38 | 7.64 | 8.70 |
| C[C@@H](O)[C@@H](C)Oc1nc(Nc2ccc(Nc3nccc(OCCO)n3)cc2)ncc1Br [Example 8, (2R,3R)-3-(5-Bromo-2-{4-[4-(2-hydroxyethoxy)pyrimidin-2-ylamino]-phenylamino}pyrimidin-4-yloxy)butan-2-ol] | 7.52 | 7.55 | 8.55 |
| COc1ccnc(Nc2ccc(Nc3ncc(Br)c(O[C@H](C)[C@@H](C)O)n3)cc2)n1 [Example 22] | 6.89 | 6.89 | 8.32 |
| C[C@@H](O)[C@@H](C)Oc1nc(Nc2ccc(Nc3ncc(Br)cn3)cc2)ncc1Br [Example 24] | 7.00 | 6.96 | 8.21 |
| C[C@@H](O)[C@@H](C)Oc1nc(Nc2ccc(Nc3nccc(N(C)C)n3)cc2)ncc1Br [Example 17] | 7.01 | 7.15 | 8.36 |
| C[C@@H](O)[C@@H](C)Oc1nc(Nc2cccc(Nc3ncccn3)c2)ncc1Br [Example 25] | 6.57 | 7.85 | 8.70 |
| C[C@@H](O)[C@@H](C)Sc1nc(Nc2ccc(Nc3ncc(Cl)c(NCCO)n3)cc2)ncc1Br [Example 44] | < 5.52 | < 6.00 | 6.43 |
| C[C@@H](O)[C@@H](C)Nc1nc(Nc2ccc(Sc3nncn3C)cc2)ncc1Br [Example 39] |  | 7.96 | 8.89 |
| C[C@@H](O)[C@@H](C)Oc1nc(Nc2ccc(Nc3nccc(NCCN(C)C)n3)cc2)ncc1Br [Example 18] | 6.77 | 7.40 | 8.23 |
